{"source": "patent US11560360B2", "about": "“Therapeutic compounds” (ARIZONA BOARD OF REGENTS ON BEHALF OF ARIZONA STATE …, priority 2016, dated 2023)", "key": {"[1]": {"test_system": "FRDA lymphocytes", "assay": "Cytotoxicity assay in FRDA lymphocytes cultured in glucose free media (galactose), Live/Dead flow cytometry", "assay_type": "cell-based", "method": "Flow cytometric determination of cell viability by fluorescence labeling was used employing calcein acetoxy-methyl-ester and ethidium homodimer-1 as live and dead cell stains\nCytotoxicity was assessed by the dye exclusion method. Live cells have intact membranes, which exclude a variety of dyes that easily penetrate the damaged, permeable membranes of non-viable cells. Propidium iodide, a membrane impermeant dye, is generally excluded from viable cells, although it can enter non-viable cells and bind to double-stranded DNA by intercalating between base pairs. Compounds 1-5 were tested for their cytotoxicity in FRDA lymphocytes using FACS analysis with propidium iodide. The results are depicted in FIG. 2. From the results it is evident that cytotoxicity decreases with increasing lipophilicity in lower as well as higher concentrations for compounds 1-5.\nEvaluation of compounds 1-5 for their cytotoxicity and their ability to function within the mitochondrial respiratory chain was carried out by incubation of the prepared compounds for 24 or 48 h with FRDA lymphocytes. A nutrient-sensitized screening strategy has been used by culturing FRDA cells in galactose as the sole sugar source which forces mammalian cells to rely on mitochondrial oxidative phosphorylation (OXPHOS) to produce their ATP; they also become more sensitive to mitochondrial respiratory chain inhibitors than cells grown in glucose medium. Compounds 1-5 were tested for their cytotoxicity in FRDA lymphocytes using a simultaneous staining with a two-color fluorescence assay, the Live/Dead® Viability/Cytotoxicity Kit (Molecular Probes). This assay is used to measure two recognized parameters of cell viability, intracellular esterase activity and plasma integrity. The membrane-impermeant DNA dye ethidium homodimer-1 (EthD-1) was used to identify dead cells whose plasma membrane integrity was disrupted. The membrane-permeant dye calcein-AM was used to label live cells. It penetrates into the cells where it is metabolized by cytoplasmic esterases and becomes a fluorescent but membrane-impermeant probe which is retained in viable cells. One mL of FRDA lymphocyte cells (5×10^5 cells) was plated in a 24-well plate in glucose free media (galactose 25 mM), treated with the test compounds and incubated at 37° C. for 24 h or 48 h in a humidified atmosphere containing 5% CO2 in air. Cells were collected by centrifugation at 300×g for 3 min and washed with phosphate buffered saline. […] The samples were analyzed immediately by flow cytometry (C6 Accuri, BD Biosciences, San Jose, Calif.), using a 488 nm excitation laser and the and the FL1-H channel 530±15 nm emission filter and the FL2-H channel 585±15 nm. For each analysis 10,000 events were recorded and analyzed using C6 Accuri software (BD Biosciences)."}, "[2]": {"test_system": "mitochondrial inner membrane potential in FRDA lymphocytes", "assay": "JC-1 mitochondrial membrane potential (Δψm) assay", "assay_type": "cell-based, human", "conditions": "16 h pre-treatment, JC-1, FACS (FIG. 4)", "method": "In each analysis, 10000 events were recorded. Depolarization with carbonyl cyanide p-(trifluoromethoxy) phenylhydrazone (FCCP), was used to serve as a positive control.\nThe ability of 1-5 to maintain mitochondrial membrane potential (ΔΨm) compared to the parent compound MV was studied. ΔΨm was determined using the cationic fluorescent dye 5, 5′, 6, 6′-tetrachloro-1, 1′, 3, 3′-tetraethylbenzimidazolyl carbocyanine iodide (JC-1), which is a lipophilic cation that selectively accumulates in mitochondria due to the negative potential across the inner mitochondrial membrane. The dye exists as a monomer at low concentrations giving a green fluorescence. […] Therefore, mitochondrial depolarization is indicated by a decrease in red/green fluorescence ratio. […]\nThe ability of the test compounds to depolarize or maintains mitochondrial inner membrane potential (Δψm) was assessed using the JC-1 probe. […] JC-1 is a dual stain, which can identify high membrane potential through J-aggregates (red fluorescence) and low membrane potential through J-monomers (green fluorescence). […] Cells were resuspended in phosphate buffered saline supplemented with 20 mM glucose and were analyzed immediately by FACS (C6 Accuri, BD Biosciences, San Jose, Calif.), using a 488 nm excitation laser and the FL1-H channel 530±15 nm emission filter and the FL2-H channel 585±15 nm. […]"}, "[3]": {"test_system": "FRDA lymphocytes", "assay": "Measurement of cellular ATP concentration (firefly luciferase)", "assay_type": "cell-based, human", "conditions": "glucose free media (25 mM galactose), relative to untreated control (FIG. 6)", "method": "Results are expressed as percentage of total ATP relative to untreated control.\nATP levels in FRDA lymphocytes were measured using firefly luciferase. The cells were grown on glucose-free media supplemented with galactose for 24 h prior to the addition of the test compounds. Since cells grown in galactose rely mostly on oxidative phosphorylation (OX-PHOS) to produce their ATP, they become more sensitive to mitochondrial respiratory chain inhibitors than cells grown in glucose medium.\nMeasurement of Cellular ATP Concentration\nTotal ATP levels in FRDA lymphocytes with or without partially blocking complex I activity with rotenone (5 nM) were measured using firefly luciferase as a means to measure ATP level. The cells were grown on glucose-free media supplemented with galactose. Since cells grown in galactose rely mostly on oxidative phosphorylation (OXPHOS) to produce their ATP, they become more sensitive to mitochondria respiratory chain inhibitors than cells grown in glucose medium. Briefly, lymphocytes (2×10^5 cell/mL) were plated (1 mL) in 24-well plates, treated with the test compounds, and then incubated at 37° C. for 48 h in a humidified atmosphere containing 5% CO2 in air. FRDA lymphocytes with partial inhibition of complex I, cells were preincubated with test compounds for overnight before rotenone (5 nM) treatment for 24 h. Cells in each well were mixed and transferred (100 μL) to 96-well microtiter black-walled cell culture plates (Costar, Corning, N.Y.). The total intracellular ATP level was measured in a luminator (Clarity™ luminescence microplate reader) using an ATP Bioluminescence Assay Kit (ViaLight®-Plus ATP monitoring reagent kit, Lonza) following the manufacturer's protocol. The total ATP level was expressed as a percentage of untreated control. Data are reported as the mean of at least three independent experiments."}}}
{"smiles": "CN(C)c1ccc2nc3ccc(=[N+](C)C)cc-3sc2c1", "note": "[MB, Methylene blue, reference compound]", "values": [{"measurement": "cytotoxicity", "setting": "[1]; FRDA lymphocytes on galactose for 48 h (FIG. 2)", "result": "cytotoxic"}, {"measurement": "cytotoxicity", "setting": "[1]; FRDA lymphocytes, 0.5-2.5 μM concentrations", "result": "strong cytotoxicity"}, {"measurement": "preservation of mitochondrial membrane potential (Δψm)", "setting": "[2]", "result": "significantly depolarized Δψm"}, {"measurement": "cellular ATP levels", "setting": "[3]", "result": "inhibited ATP production, especially at higher concentrations"}]}
